Test results: patent publication US8168669B2, “Therapeutic agent for inflammatory bowel disease and TNF-α production inhibitor” (Ajinomoto Co., Inc., priority 2005, dated 2012)

Assays:
Type in all cases: in vivo, mouse
TNF-α mRNA = assay: Inhibitory effect on TNF-α production: quantitative RT-PCR of colon TNF-α mRNA; conditions: colon after three weeks
Method: (§1) The experimental diet obtained by mixing the amino acids shown in Table 6 with the standard chow was given to the experiment mice, and after three weeks, the colon was removed. A colon sample was homogenized with 500 μL of Isogen (Nippon Gene). The homogenate mixed with 100 μL, of chloroform was centrifuged at 15,000 rpm at 4° C. and an aqueous layer was collected. An equivalent amount of 2-propanol was added thereto, which was then centrifuged at 15,000 rpm at 4° C. A resulting pellet was washed with 70% (v/v) ethanol, dried in air and dissolved in water treated with DEPC.
All reagents used were from Invitrogen. 0.5 μg Of total RNA and 0.5 μg of oligo (dT) were dissolved in 12 μL of DEPC-treated water, heated at 70° C. for 10 minutes, and cooled on ice for one minute. Subsequently, 4 μL of 5×1st strand buffer, 1 μL of 10 mM dNTP mix and 2 μL of 100 mM DTT were added thereto. The mixture was reacted at 42° C. for 5 minutes. 1 μL (200 U) of SuperScriptII was added, and the mixture was reacted at 42° C. for 50 minutes and 70° C. for 15 minutes.
(§2) A gene expression assay based on PCR was performed using SYBR Green PCR Master Mix (Applied Biosystems) and ABI PRISM 7700 System. SYBR Green PCR Master Mix comprises SYBR Green and heat resistant DNA polymerase, and detects fluorescence generated by specifically binding SYBR Green to a double strand DNA amplified by PCR using ABI PRISM 7700 System. Gene expression amounts of the samples can be compared by comparing the numbers of PCR cycles at which a significant fluorescence signal is detected for the first time. The cDNA corresponding to 10 ng of total RNA was used as a template of the quantitative PCR, and n=2 or more per sample of measurements were performed. A forward primer and a reverse primer at each 7.5 pmol of each gene were added to 7.5 μL of SYBR Green PCR Master Mix (Applied Biosystems), and the total volume was made to be 15 μL with water. The PCR was performed by 40 cycles of the reaction at 95° C. for 10 seconds, 60° C. for 30 seconds and 72° C. for 30 seconds after reacting at 95° C. for 10 minutes. The sequences of the primers used for the quantitative RT-PCR are as follows.
An inhibitory rate of TNF-α mRNA expression was calculated from the following formula. Inhibitory rate of TNF-α mRNA expression=[1−Relative amount of TNF-α mRNA expression in target group−Relative amount of TNF-α mRNA expression in cell transfer group)/(Relative amount of TNF-α mRNA expression in standard chow group−Relative amount of TNF-α mRNA expression in cell transfer group)]×100(%)

Reg3γ mRNA = assay: Quantitative RT-PCR of colon Reg3γ mRNA; conditions: 5% in standard chow, colon after three weeks
Method: as §1
(§3) All reagents used were from Invitrogen. […]
as §2, with “A forward primer and a reverse primer at each 7.5 pmol of each gene were added to 7.5 μL of SYBR Green PCR Master Mix (Applied Biosystems), and the total volume was made to be 15 μL with water. The PCR was performed by 40 cycles of the reaction at 95° C. for 10 seconds, 60° C. for 30 seconds and 72° C. for 30 seconds after reacting at 95° C. for 10 minutes.” left out, “follows. […]” for “follows.”

[1] = test system: colitis in Scid mice injected with cells of IL-10 deficient Balb/c mice; assay: Therapeutic effect on inflammatory bowel disease: colon weight in cell-transfer colitis mice fed experimental diet; set-up: Colon weight Mean: unit not given here; conditions: three weeks after cell transfer
Method: Balb/c background IL-10 deficient mice were established from C57BL/6 background IL-10 deficient mice by back-crossing for seventh generations. […] Spleen, mesenteric lymph nodes and sacral lymph nodes were collected from the IL-10 gene-deficient Balb/c mice (male) which had developed the colitis detected by observing the diarrhea symptoms. After preparing single cell suspensions, the cells at about 1×10^7 were injected intraperitoneally to Scid mice which were immunodeficiency mice (hereinafter the Scid mouse injected IP was referred to as an “experiment mouse”). Subsequently, a chow was changed to an experimental diet. At a time point three weeks after cell transfer, the mice were killed, the colon was collected, the intestinal contents were washed out, and its weight was measured. A percentage of inhibiting a weight gain of the colon was calculated by the following formula. Percentage of inhibiting a weight gain of colon=[1−(Colon weight in target group−Colon weight in cell transfer group)/(Colon weight in standard chow group−Colon weight in cell transfer group)]×100(%)
An amino acid mixture A is composed of the following amino acids (% by weight is represented in terms of free amino acid).

Groα mRNA = assay: Quantitative RT-PCR of colon Groα mRNA; conditions: 5% in standard chow, colon after three weeks
Method: as §1, §3
as §2, with “A forward primer and a reverse primer at each 7.5 pmol of each gene were added to 7.5 μL of SYBR Green PCR Master Mix (Applied Biosystems), and the total volume was made to be 15 μL with water. The PCR was performed by 40 cycles of the reaction at 95° C. for 10 seconds, 60° C. for 30 seconds and 72° C. for 30 seconds after reacting at 95° C. for 10 minutes.” left out, “follows. […]” for “follows.”

[2] = Mus musculus, po, 504 h, 5% in standard chow, read-out: Rate of inhibiting weight gain of colon (%)

Row | Structure (SMILES) | Inhibitory rate of TNF-α mRNA expression (%) (TNF-α mRNA; 5% in standard chow) | Colon weight Mean ([1]; 5% in standard chow) | inhibition in vivo at 5 % [1, 2] | further results
1 | N[C@@H](Cc1c[nH]cn1)C(=O)O [Example 3, histidine] | 54% | 429.0 | 37.8% | Inhibitory rate of Reg3γ mRNA Expression (%) (Reg3γ mRNA): 84%; Inhibitory rate of Groα mRNA Expression (%) (Groα mRNA): 70%
2 | N[C@@H](Cc1c[nH]c2ccccc12)C(=O)O [Example 6, tryptophan] | 49% | – | 92.7% | Inhibitory rate of TNF-α mRNA expression (%) (TNF-α mRNA; 2% in standard chow): 33%; Colon weight Mean ([1]; 2% in standard chow): 425.6; inhibition in vivo at 2 % ([1]; Mus musculus, po, 504 h, 2% in standard chow, read-out: Rate of inhibiting weight gain of colon (%)): 41.9%
3 | N[C@@H](Cc1ccccc1)C(=O)O [Example 12, phenylalanine] | 84% | 392.8 | 48.5% | –
4 | NCCCC[C@H](N)C(=O)O [Example 2, lysine] | – | 392.8 | 48.5% | –
5 | N[C@@H](CS)C(=O)O [Example 4, cysteine] | – | – | 42.1% | –
6 | CSCC[C@H](N)C(=O)O [Example 7, methionine] | – | 307.7 | 73.1% | –
7 | NC(=O)CC[C@H](N)C(=O)O [Example 1, glutamine] | – | 530.5 | 22.5% | –
8 | C[C@@H](O)[C@H](N)C(=O)O [Example 13, threonine] | – | 468.2 | 28.8% | –
9 | NCC(=O)O [Example 5, glycine] | – | 437.1 | – | Rate of inhibiting weight gain of colon (%) ([1]; 5% in standard chow): 37.4%
